{"source": "patent US20220265723A1", "about": "“NON-VIRAL MODIFICATION OF MESENCHYMAL STEM CELLS” (NATIONAL UNIVERSITY OF SINGAPORE, priority 2019, published 2022)", "key": {"[1]": {"conditions": "cited from earlier work; for Potential of activation (fold): per enzyme/prodrug system"}, "[2]": {"conditions": "systems: CA/CPT-11, CD/5-FC, CPG2/CMDA, CJS278, Cyt-450, dCK/ara-C, HSV-TK, NR/CB1954, PNP/6-MePdR, TP/5′-DFUR, VZV-TK/ara-M, XGPRT/6-TX, 6-TG; cited from earlier work"}, "CDy::UPRT_AT-MSCs": {"system": "CDy::UPRT_AT-MSCs", "assay": "Sensitivity of modified AT-MSCs to 5FC and 5FU, MTS assay", "assay_type": "cell-based, human", "description": "The cell viability at each time point was measured by standard MTS assay. At various time points, samples without 5FC treatment served as control. […] MTS assay were used to measure cell viability post treatment. Conditions without 5FU treatment was taken as 100%. Results were presented as mean±SD (n=4). […] Isotype antibodies served as respective controls. […] At the end of incubation, cells were stained with Alizarin red S. Calcium deposits stained with Alizarin red S were one of the phenotype indicating differentiated AT-MSCs. […] Fourteen days later, cells were stained with Oil Red-O. This dye stained for oil droplets visible in the cells, indicative of adipogenic differentiation. The images were captured at 20× magnification;\nQuadruplicates of AT-MSC, MKN1, MKN45, MDA-MB-231 (10,000 cells per well) and U-251MG (4000 cells per well) for each treatment were plated into 96-well plates. […] One to five days later, plates were subjected to the CellTiter 96 Aqueous One Solution Cell Proliferation Assay (Promega). The colorimetric read out was measured spectrophotometrically at 490 nm. Results were expressed as the percentage of cell viability, in relative to cells in condition without 5-FC or 5-FU (set to 100%)."}, "[3]": {"system": "prodrug-activating enzyme of each system: CA, CD, CPG2, Cyt-450, dCK, HSV-TK, NR, PNP, TP, VZV-TK", "conditions": "systems: CA/CPT-11, CD/5-FC, CPG2/CMDA, Cyt-450/CP, IF, dCK/ara-C, HSV-TK/GCV, ACV, NR/CB1954, PNP/6-MePdR, TP/5′-DFUR, VZV-TK/ara-M; read-out: KM (S0.5); cited from earlier work"}, "[4]": {"conditions": "prodrug of the enzyme/prodrug system, read-out: Potency, IC50 (μM) Prodrug"}, "[5]": {"conditions": "active drug formed from the prodrug of the system, read-out: Potency, IC50 (μM) Drug"}}, "note": "Read-outs that look alike come from different tables or passages of the source."}
{"smiles": "Nc1nc(O)c2ncn(COC(CO)CO)c2n1", "note": "[GCV, ganciclovir]", "values": [{"measurement": "IC50", "setting": "[1]; [4]", "value": "200 to 600", "unit": "µM"}]}
{"smiles": "COc1cccc2c1C(=O)c1c(O)c3c(c(O)c1C2=O)C[C@@](O)(C(=O)CO)C[C@@H]3O[C@H]1C[C@H](N)[C@H](O)[C@H](C)O1", "note": "[Doxorubicin]", "values": [{"measurement": "IC50", "setting": "[1]; [5]", "value": 0.012, "unit": "µM"}, {"measurement": "Potential of activation (fold)", "setting": "[1]", "value": 21, "unit": "fold"}, {"measurement": "Degree of activation (fold)", "setting": "[2]", "value": 11, "unit": "fold"}]}
{"smiles": "O=c1[nH]cc(F)c(=O)[nH]1", "note": "[5FU, 5-fluorouracil]", "values": [{"measurement": "IC50", "setting": "[1]; [5]", "value": "4 to 23.5", "unit": "µM"}, {"measurement": "susceptibility of CDy::UPRT_AT-MSCs versus unmodified AT-MSCs", "setting": "CDy::UPRT_AT-MSCs; 100 μg/mL 5FU, 5 days", "value": "increased susceptibility of suicide effect"}]}
{"smiles": "O=P1(N(CCCl)CCCl)NCCCO1", "note": "(centres unmarked) [CP]", "values": [{"measurement": "Km", "setting": "[3]", "value": 300, "unit": "µM"}, {"measurement": "IC50", "setting": "[1]; [4]", "value": "~4000", "unit": "µM"}]}
{"smiles": "CCc1c2c(nc3ccc(OC(=O)N4CCC(N5CCCCC5)CC4)cc13)-c1cc3c(c(=O)n1C2)COC(=O)[C@]3(O)CC", "note": "[CPT-11]", "values": [{"measurement": "IC50", "setting": "[1]; [4]", "value": "1.6 to 8.1", "unit": "µM"}]}
{"smiles": "CCc1c2c(nc3ccc(O)cc13)-c1cc3c(c(=O)n1C2)COC(=O)[C@]3(O)CC", "note": "[SN-38]", "values": [{"measurement": "IC50", "setting": "[1]; [5]", "value": "0.003 to 0.011", "unit": "µM"}]}
{"smiles": "Nc1nc(=S)c2[nH]cnc2[nH]1", "note": "[6-TG]", "values": [{"measurement": "IC50", "setting": "[1]; [4]", "value": 0.5, "unit": "µM"}, {"measurement": "Degree of activation (fold)", "setting": "[2]", "value": "6-TG: 10 fold"}]}
{"smiles": "Cc1ncnc2c1ncn2[C@H]1C[C@H](O)[C@@H](CO)O1", "note": "[6-MePdR]", "values": [{"measurement": "Km", "setting": "[3]", "value": "14 to 23", "unit": "µM"}, {"measurement": "Potential of activation (fold)", "setting": "[1]", "value": "25-1,000 fold"}, {"measurement": "IC50", "setting": "[1]; [4]", "value": "> 200", "unit": "µM"}, {"measurement": "Degree of activation (fold)", "setting": "[2]", "value": 40, "unit": "fold"}]}
{"smiles": "NC(=O)c1cc(N2CC2)c([N+](=O)[O-])cc1[N+](=O)[O-]", "note": "[CB1954]", "values": [{"measurement": "Km", "setting": "[3]", "value": 900, "unit": "µM"}, {"measurement": "Potential of activation (fold)", "setting": "[1]", "value": ">50,000 fold"}, {"measurement": "IC50", "setting": "[1]; [4]", "value": "> 1000", "unit": "µM"}, {"measurement": "Degree of activation (fold)", "setting": "[2]", "value": "14-10,000 fold"}]}
{"smiles": "Nc1nc(=O)[nH]cc1F", "note": "[5FC, 5-fluorocytosine]", "values": [{"measurement": "cell viability of CDy::UPRT modified AT-MSCs", "setting": "CDy::UPRT_AT-MSCs; 150 μg/mL 5FC, over time", "value": "reduced cell viability over time"}]}
{"smiles": "O=c1[nH]c(=O)n([C@H]2C[C@H](O)[C@@H](CO)O2)cc1F", "note": "[5-FUdR]", "values": [{"measurement": "IC50", "setting": "[1]; [5]", "value": 0.0023, "unit": "µM"}]}
{"smiles": "CS(=O)(=O)OCCN(CCCl)c1ccc(C(=O)N[C@@H](CCC(=O)O)C(=O)O)cc1", "note": "[CMDA]", "values": [{"measurement": "Km", "setting": "[3]", "value": 3.4, "unit": "µM"}, {"measurement": "IC50", "setting": "[1]; [4]", "value": "1700 to 3120", "unit": "µM"}]}
{"smiles": "C[C@H]1O[C@@H](n2cc(F)c(=O)[nH]c2=O)[C@H](O)[C@@H]1O", "note": "[5′-DFUR]", "values": [{"measurement": "Km", "setting": "[3]", "value": "325 to 433", "unit": "µM"}, {"measurement": "Potential of activation (fold)", "setting": "[1]", "value": 7000, "unit": "fold"}, {"measurement": "IC50", "setting": "[1]; [4]", "value": 17, "unit": "µM"}, {"measurement": "Degree of activation (fold)", "setting": "[2]", "value": 165, "unit": "fold"}]}
{"smiles": "CS(=O)(=O)OCCN(CCCl)c1ccc(C(=O)O)cc1", "note": "[CMBA]", "values": [{"measurement": "IC50", "setting": "[1]; [5]", "value": "8 to 65", "unit": "µM"}]}
{"smiles": "Nc1ccn([C@@H]2O[C@H](CO)[C@@H](O)[C@@H]2O)c(=O)n1", "note": "[ara-C]", "values": [{"measurement": "Km", "setting": "[3]", "value": 25.6, "unit": "µM"}, {"measurement": "IC50", "setting": "[1]; [4]", "value": "0.3 to 0.6", "unit": "µM"}, {"measurement": "Degree of activation (fold)", "setting": "[2]", "value": "2-100 fold"}]}
{"smiles": "COc1ncnc2c1ncn2[C@@H]1O[C@H](CO)[C@@H](O)[C@@H]1O", "note": "[ara-M]", "values": [{"measurement": "Km", "setting": "[3]", "value": 56, "unit": "µM"}, {"measurement": "Potential of activation (fold)", "setting": "[1]", "value": ">2,000 fold"}, {"measurement": "IC50", "setting": "[1]; [4]", "value": "> 2000", "unit": "µM"}, {"measurement": "Degree of activation (fold)", "setting": "[2]", "value": "55-600 fold"}]}
{"smiles": "O=c1[nH]c(=S)c2[nH]cnc2[nH]1", "note": "[6-TX]", "values": [{"measurement": "IC50", "setting": "[1]; [4]", "value": "> 50", "unit": "µM"}, {"measurement": "Degree of activation (fold)", "setting": "[2]", "value": "6-TX: >20; fold"}]}
{"smiles": "Cc1ncnc2nc[nH]c12", "values": [{"measurement": "IC50", "setting": "[1]; [5]", "value": 3.7, "unit": "µM"}]}
{"smiles": "O=P1(NCCCl)OCCCN1CCCl", "note": "(centres unmarked) [IF]", "values": [{"measurement": "Km", "setting": "[3]", "value": 480, "unit": "µM"}, {"measurement": "IC50", "setting": "[1]; [4]", "value": "~4000", "unit": "µM"}]}
